The conditions of data set [1]: gradient elution of standard mixture and correlation with published data; published CHI values; cited from earlier work.
Data set [2] in a line: Chromatographic hydrophobicity index (CHI) by RP-HPLC in buffered methanol. In kind it is physicochemical. As to conditions: isochratic and gradient elution of standard mixture.
Data set [3] can be described thus: Chromatographic hydrophobicity index (CHI) by RP-HPLC in buffered acetonitrile. As to conditions: isochratic and gradient elution of standard mixture. In kind it is physicochemical.
For data set [4], the system named is HepG2 cells. As to conditions: for cytoprotection on HepG2 cells at 6.25% IC50: compound at 6.25% of its IC50, CCl4 4.5×10^−3 M; for cytoprotection on HepG2 cells at 12.5% IC50: compound at 12.5% of its IC50, CCl4 4.5×10^−3 M; for cytoprotection on HepG2 cells at 20% IC50: compound at 20% of its IC50, CCl4 4.5×10^−3 M; for cytoprotection on HepG2 cells at 50% IC50: compound at 50% of its IC50, CCl4 4.5×10^−3 M. The source says:
The activity of two toxins was studied first on HepG2 cells—bromobenzene (BB) and CCl4. Cells were challenged with the toxins at different concentration levels.
Experimental conditions were standardized on silybin. Cells were challenged with CCl4 (4.5×10^−3M) in presence of silybin at various concentrations.
The ratio of IC50-to-EC50 (hereafter T/A) is also indicated in this table, which gives the margin between toxic and cytoprotective concentrations.

Data set [5] can be described thus: ABTS Radical Cation Decolorization Assay. As to conditions: 50 μM, 100 μM, and 1.8 mM; up to 2 hours. On the procedure: Cucurbitacin B activity was monitored at 50 μM, 100 μM, and 1.8 mM. The time interval was expanded up to 2 hours in case cucurbitacin B was reacting slowly.
Data set [6] can be described thus: DPPH Stable Free Radical Scavenging Assay. As to conditions: for DPPH activity at 50 μM: up to 30 minutes incubation. As for the experimental part: Cucurbitacin antioxidant activity was studied first by the DPPH® Stable Free Radical Scavenging Assay (Cotelle et al., Free radical Biology & Medicine 20(1): 35-43, 1996). Experimental conditions were optimized on the standard compound ascorbic acid. Data indicated 30% activity at 50 μM concentration, and 100% activity at 100 μM for ascorbic acid. While the original assay required 10 minutes incubation time for the reaction to occur, this time was increased up to 30 minutes in case cucurbitacin were reacting slower than other reagents.
Background: Loss of DPPH colour is used to gauge radical scavenging.

Data set [7] has as its system HepG2 cells. It is filed as cell-based, human. As to conditions: HepG2, toxin at 4.5×10^−3 M.
Protocol: The activity of two toxins was studied first on HepG2 cells—bromobenzene (BB) and CCl4. Cells were challenged with the toxins at different concentration levels. Precipitate formation was observed when BB was diluted with media prior to addition to the cells; therefore, both the precipitate and the supernatant were added separately over cells to study their toxic effect.
Data set [8] deals with HSC-T6 cells. Nature of the data set: Serum-driven HSC-T6 proliferation, Experiment 1 (4 h challenge). As to conditions: for Experiment 1 anti-proliferation activity at 100 μM: HSC-T6, measured at 100 μM. In kind it is cell-based, rat. As for the experimental part: The proliferation effect of serum on HSC-T6 cells was optimized and cucurbitacin antiproliferative activity was measured. Serum contains a large number of growth factors, hormones and other nutrients, which help cells to grow and multiply. Several trials were conducted. In experiment 1, cells were challenged with cucurbitacin analogs for 4 h and then cells were grown in drug-free media for two additional days.
We established several experimental conditions such as 4 hours of incubation time with cucurbitacin, and 2 day cell incubation with fresh media after challenging with cucurbitacin (Exp. 1). Other experiments involved addition of cucurbitacin for 24 hours over starved cells (Exp. 2) vs. proliferating cells (Exp. 3), and one day incubation of cells with fresh media after challenge. […] Because of that, the challenge time was increased to 24 hours (Exp. 2 and 3).
We modified this approach. Our assay included a second control (ZC) supplemented with no serum intended to measure cucurbitacin anti-proliferation effect relative to the number of cells generated during challenge instead of the total number of cells present in each well.

Data set [9] relates to HSC-T6 cells. Nature of the data set: Cucurbitacin cytotoxicity on HSC-T6 (Experiment 3). In kind it is cell-based, rat. As to conditions: 24 h. An excerpt: Cytotoxicity of all cucurbitacin analogs was additionally measured in experiment 3 (Table 8).
Data set [10] concerns HSC-T6 cells. Nature of the data set: PDGF-driven proliferation of HSC-T6 cells. As to conditions: HSC-T6, incubation with PDGF for 2 days; not reproducible. It is filed as cell-based, rat. The source says:
The proliferation assay described by Zhang et al. (Zhang et al., Acta Pharmacol. Sin. 21: 253-256, 2000), was followed to determine the proliferative effect of PDGF on HSC-T6 cells, and yielded to total cell confluency prior to the addition of PDGF to the cells. Therefore, experimental conditions were changed stepwise to reduce cell confluency. When cell concentration was reduced from the initial 10,000 to 4,000 cells/well, and FBS concentration was reduced from 10 to 2%, cell confluency reached approximately 50% prior to the addition of PDGF. […] Further modifications to the initial assay were done such as increase of period of incubation or increase of PDGF concentration. Cells incubation with PDGF for 2 days indicated some degree of proliferation (0-22%), but it was not reproducible from one trial to the other.
The experimental conditions presented by Yang et al. (Yang et al., World J. Gastroenterol. 9: 2050-2053, 2003) were also examined. It involved 1-day cell starvation in serum-free media followed by 3 h challenge with drug candidates and then 2 days incubation with PDGF in serum-free media. In our study, PDGF was added at various concentration levels to starved cells and incubation period with PDGF was increased to 2-to-3 days. However, we could not achieve a stable and significant level of cell proliferation in the presence of PDGF. […]

Marks after values point to notes of the source that are not given here.

For the compound `CC(=O)c1ccccc1` [Acetophenone (21), acetophenone], the “CHIACN^c (standard compounds)” value in data set [1] is recorded as 64.90. Moreover, the “CHIMeOH^b (standard compounds)” value in [2] was found to be 52.47 ± 0.05. Further, the “CHIACN^b (standard compounds)” value in data set [3] is 61.93 ± 0.05.

For `Nc1ccccc1` [Aniline (28), aniline], in data set [2], the “CHIMeOH^b (standard compounds)” value was 29.94 ± 0.05.

In the case of `CC(=O)OC(C)(C)/C=C/C(=O)[C@](C)(O)[C@H]1[C@H](O)C[C@@]2(C)[C@@H]3CC=C4[C@H](C[C@H](O)C(=O)C4(C)C)[C@]3(C)C(=O)C[C@]12C` [B, cucurbitacin B], in the data set with HepG2 cells [4], the “cytoprotection on HepG2 cells at 6.25% IC50” value (“cytoprotection … at 6.25% IC50” below) came to 12.45 ± 1.11, the “cytoprotection on HepG2 cells at 12.5% IC50” value (“cytoprotection … at 12.5% IC50” below) is 25.25 ± 1.36, the “cytoprotection on HepG2 cells at 20% IC50” value (“cytoprotection … at 20% IC50” below) was found to be 34.92 ± 2.76 and the “cytoprotection on HepG2 cells at 50% IC50” value (from here on “cytoprotection … at 50% IC50”) amounted to 60.01 ± 0.80. Also, in [5], the ABTS activity entry is recorded as “No activity”. For the same compound, the “DPPH activity at 50 μM” value in data set [6] is “did not indicate any activity”.

As to `c1ccc2[nH]cnc2c1` [Benzimidazole (20), benzimidazole], in data set [1], the “CHIACN^c (standard compounds)” value is given as 30.71. Moreover, the “CHIMeOH^b (standard compounds)” value in data set [2] was determined as 41.07 ± 0.04. The “CHIACN^b (standard compounds)” value in data set [3] is 43.18 ± 0.12.

Consider `Brc1ccccc1` [Bromobenzene (29), bromobenzene], for which the “CHIMeOH^b (standard compounds)” value in data set [2] was 69.43 + 0.07.

For `CCCC(=O)c1ccccc1` [Butyrophenone (24), butyrophenone], the “CHIACN^c (standard compounds)” value in data set [1] is given as 88.49. In addition, in [2], the “CHIMeOH^b (standard compounds)” value was 66.79 ± 0.05. Also, the “CHIACN^b (standard compounds)” value in data set [3] is 79.32 ± 0.14.

Turning to `ClC(Cl)(Cl)Cl` [CCl4], in the data set on HepG2 cells [7], the cell viability was 40%-50%.

`COc1cc2c(c(OC)c1OC)-c1ccc(OC)c(=O)cc1[C@@H](NC(C)=O)CC2` [Colchicine (26), colchicine]: in [1], the “CHIACN^c (standard compounds)” value is 41.37. Besides, the “CHIMeOH^b (standard compounds)” value in data set [2] is on record as 57.56 + 0.04.

As to `CC(=O)OC(C)(C)/C=C/C(=O)[C@](C)(O)[C@H]1[C@H](O)C[C@@]2(C)[C@@H]3CC=C4[C@@H](C=C(O[C@@H]5O[C@H](CO)[C@@H](O)[C@H](O)[C@H]5O)C(=O)C4(C)C)[C@]3(C)C(=O)C[C@]12C` [E-Gluc, cucurbitacin E glucoside], the “Experiment 1 anti-proliferation activity at 100 μM” value in the data set with HSC-T6 cells [8] is “˜46% ^a”. In the data set on HepG2 cells [4], the “cytoprotection … at 6.25% IC50” value is −2.36 ± 1.08, the “cytoprotection … at 12.5% IC50” value is listed as 17.96 ± 1.14, the “cytoprotection … at 20% IC50” value is reported as 49.44 ± 0.29 and the “cytoprotection … at 50% IC50” value is on record as 33.92 ± 2.92.

Consider `CC(C)(O)/C=C/C(=O)[C@](C)(O)[C@H]1[C@H](O)C[C@@]2(C)[C@@H]3CC=C4[C@@H](C=C(O)C(=O)C4(C)C)[C@]3(C)C(=O)C[C@]12C` [I, cucurbitacin I], for which, in the data set with HepG2 cells [4], the “cytoprotection … at 6.25% IC50” value came to 4.55 ± 0.64, the “cytoprotection … at 12.5% IC50” value is 17.50 ± 1.32, the “cytoprotection … at 20% IC50” value amounted to 50.09 ± 1.02 and the “cytoprotection … at 50% IC50” value is 54.75 ± 0.29.

In the case of `CC(C)(O)/C=C/C(=O)[C@](C)(O)C1[C@H](O)C[C@@]2(C)C3CC=C4C(C=C(O[C@@H]5O[C@H](CO)[C@@H](O)[C@H](O)[C@H]5O)C(=O)C4(C)C)[C@]3(C)C(=O)C[C@]12C` (some centres unmarked) [I-Gluc, cucurbitacin I glucoside], the “Experiment 1 anti-proliferation activity at 100 μM” value with HSC-T6 cells [8] is listed as “˜20% ^a”.

Consider `CC(C)OC1=CC2C(=CCC3C2(C)C(=O)CC2(C)C(C(C)(O)C(=O)C=CC(C)(C)O)C(O)CC32C)C(C)(C)C1=O` (centres unmarked) [I-iPr], for which, in the data set with HepG2 cells [4], the “cytoprotection … at 6.25% IC50” value is listed as −17.10 ± 1.54, the “cytoprotection … at 12.5% IC50” value amounted to 4.15 ± 0.48, the “cytoprotection … at 20% IC50” value is listed as 18.69 ± 0.13 and the “cytoprotection … at 50% IC50” value came out at 41.73 ± 2.06.

On to `CCCOC1=CC2C(=CCC3C2(C)C(=O)CC2(C)C(C(C)(O)C(=O)C=CC(C)(C)O)C(O)CC32C)C(C)(C)C1=O` (centres unmarked) [I-nPr, cucurbitacin I-nPr], for which the “Experiment 1 anti-proliferation activity at 2-6 μM” value with HSC-T6 cells [8] (HSC-T6, measured at 2-6 μM) is listed as “˜18% ^b”.

`c1ccc2[nH]ccc2c1` [Indole (22), indole]: in data set [1], the “CHIACN^c (standard compounds)” value is recorded as 69.15. Also, the “CHIACN^b (standard compounds)” value in [3] is 67.73 + 0.13.

Regarding `Cn1c(=O)c2nc(-c3ccccc3)[nH]c2n(C)c1=O` [Ph-theophylline (27), phenyltheophylline], in data set [1], the “CHIACN^c (standard compounds)” value is 52.04. Also, the “CHIMeOH^b (standard compounds)” value in [2] is 61.61 ± 0.04.

`CCC(=O)c1ccccc1` [Propiophenone (23), propiophenone]: in [1], the “CHIACN^c (standard compounds)” value was 78.41. Moreover, in data set [2], the “CHIMeOH^b (standard compounds)” value is listed as 60.41 + 0.04. Also, the “CHIACN^b (standard compounds)” value in data set [3] is recorded as 71.72 + 0.15.

Regarding `COc1cc(C2Oc3cc([C@H]4Oc5cc(O)cc(O)c5C(=O)[C@@H]4O)ccc3OC2CO)ccc1O` (some centres unmarked) [Silybin, reference compound], the “Experiment 1 anti-proliferation activity at 100 μM” value in the data set with HSC-T6 cells [8] was “˜20% ^a”. In the data set on HepG2 cells [4] (HepG2, silybin alone, 14 to 200 μM), the “cell growth with silybin alone” value is reported as “up to 125%”. For the same compound, the “toxicity of silybin alone on HepG2 cells” value in the data set on HepG2 cells [4] (silybin alone, absence of CCl4, 14 to 200 μM (FIG. 4)) is given as “no toxicity”. Also, the “Experiment 3 IC50 (μM, T)” value in the data set on HSC-T6 cells [9] is on record as “non”.

As for `Cn1c(=O)c2[nH]cnc2n(C)c1=O` [Theophylline (19), theophylline], the “CHIACN^c (standard compounds)” value in data set [1] was 15.76. Further, the “CHIMeOH^b (standard compounds)” value in data set [2] worked out at 25.76 ± 0.05. Moreover, the “CHIACN^b (standard compounds)” value in data set [3] came to 32.63 ± 0.07.

For the compound `CCCCC(=O)c1ccccc1` [Valerophenone (25), valerophenone], the “CHIACN^c (standard compounds)” value in data set [1] is 97.67. In addition, in [2], the “CHIMeOH^b (standard compounds)” value is listed as 73.05 + 0.12. Moreover, the “CHIACN^b (standard compounds)” value in [3] stood at 86.66 ± 0.08.

Consider `O=C1O[C@H]([C@@H](O)CO)C(O)=C1O` [ascorbic acid], for which the “DPPH activity at 50 μM” value in data set [6] came to 30%. For the same compound, the “DPPH activity at 100 μM” value in [6] (100 μM) came to 100%.

PDGF: in the data set on HSC-T6 cells [10], the degree of proliferation is 0-22%.

With cucurbitacin E, in the data set on HepG2 cells [4], the “cytoprotection … at 6.25% IC50” value turned out to be 12.41 ± 0.78, the “cytoprotection … at 12.5% IC50” value came out at 21.72 ± 0.75, the “cytoprotection … at 20% IC50” value is recorded as 49.21 ± 1.73 and the “cytoprotection … at 50% IC50” value worked out at 80.55 ± 6.80.

Values taken from US20070099852A1, “CUCURBITACIN COMPOUNDS” (SOUTH DAKOTA STATE UNIVERSITY, priority 2005, published 2007).
